Some results are limits rather than exact numbers.

The target of this assay is T1, N-terminally GST-tagged human full length recombinant Mps-1 kinase (Homo sapiens, UniProt P33981).
T1 construct: N-terminally GST-tagged human full length recombinant Mps-1 kinase; purchased Invitrogen, Karslruhe, Germany PV4071
T1 sequence (P33981 1-857): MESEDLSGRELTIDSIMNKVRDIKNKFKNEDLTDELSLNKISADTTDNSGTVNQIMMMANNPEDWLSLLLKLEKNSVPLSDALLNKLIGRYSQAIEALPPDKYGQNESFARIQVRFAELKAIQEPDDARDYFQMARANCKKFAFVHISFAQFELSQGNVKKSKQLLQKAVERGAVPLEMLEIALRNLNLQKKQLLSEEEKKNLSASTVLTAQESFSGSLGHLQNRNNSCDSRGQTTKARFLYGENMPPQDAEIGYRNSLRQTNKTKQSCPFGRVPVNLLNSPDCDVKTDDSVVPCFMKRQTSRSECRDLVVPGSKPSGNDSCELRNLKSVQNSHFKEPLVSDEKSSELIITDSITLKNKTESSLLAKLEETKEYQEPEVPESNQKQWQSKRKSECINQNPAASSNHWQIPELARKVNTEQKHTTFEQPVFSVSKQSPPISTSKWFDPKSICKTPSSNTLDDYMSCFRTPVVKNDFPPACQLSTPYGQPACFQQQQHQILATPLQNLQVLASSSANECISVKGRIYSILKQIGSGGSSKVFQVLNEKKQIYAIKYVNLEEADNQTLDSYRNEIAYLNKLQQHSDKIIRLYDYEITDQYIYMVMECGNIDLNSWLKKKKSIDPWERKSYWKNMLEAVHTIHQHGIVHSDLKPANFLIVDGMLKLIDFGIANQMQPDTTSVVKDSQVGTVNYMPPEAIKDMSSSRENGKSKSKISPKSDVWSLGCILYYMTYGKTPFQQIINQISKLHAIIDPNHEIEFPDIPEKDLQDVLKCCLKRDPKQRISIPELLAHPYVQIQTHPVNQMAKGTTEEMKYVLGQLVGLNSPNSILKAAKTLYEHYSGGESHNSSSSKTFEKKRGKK
The assay can be described thus: Mps-1 kinase assay (TR-FRET). The assay is classed as biochemical. The conditions noted are these: Mps1 IC50 [nM], 10 μM ATP, 1 μM peptide substrate, 60 min at 22° C. An outline of the steps: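 TR-FRET signal between a Europium anti-phospho-Ser/Thr antibody and streptavidin-XLent reported phosphorylation of a biotinylated peptide by GST-tagged full-length Mps-1. Enzyme was near 1 nM final, chosen per lot for linearity.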
Background: In TR-FRET formats the signal depends on donor and acceptor labels being close together.
By IC50 is commonly meant the concentration that inhibits the measured activity by half. On to `Cc1cc(-c2cnc3c(NCC4CCS(=O)(=O)CC4)cc(Sc4ccccc4)nn23)ccc1C(=O)NC1CC1` [Example 302, N-cyclopropyl-4-[8-{[(1,1-dioxidotetrahydro-2H-thiopyran-4-yl)methyl]amino}-6-(phenylsulfanyl)imidazo[1,2-b]pyridazin-3-yl]-2-methylbenzamide], for which the half-maximal inhibitory concentration (IC50) was 0.3 nM. Consider `Cc1cc(-c2cnc3c(NCC(C)C)cc(-c4ccn[nH]4)nn23)ccc1C(=O)NC1CC1` [Example 195, N-cyclopropyl-2-methyl-4-{8-[(2-methylpropyl)amino]-6-(1H-pyrazol-5-yl)imidazo[1,2-b]pyridazin-3-yl}benzamide], for which the 50% inhibitory concentration (IC50) was 3.2 nM.

With `CC(C)CNc1cc(-c2cccc(C(N)=O)c2)nn2c(-c3ccc(C(=O)NC4CC4)cc3)cnc12` [Example 114, 4-{6-(3-Carbamoylphenyl)-8-[(2-methylpropyl)amino]imidazo[1,2-b]pyridazin-3-yl}-N-cyclopropylbenzamide], the concentration for half-maximal inhibition (IC50) is less than 1 nM. For `Cc1cc(-c2cnc3c(NCC4COCCO4)cc(-c4ccncc4)nn23)ccc1C(=O)NC1CC1` (racemic) [Example 36, (RS)—N-cyclopropyl-4-{8-[(1,4-dioxan-2-ylmethyl)amino]-6-(pyridin-4-yl)imidazo[1,2-b]pyridazin-3-yl}-2-methylbenzamide] the value was 3 nM; for `CC(C)CNc1cc(-c2cccc(F)c2)nn2c(-c3ccc(C(=O)NC4CC4)cc3)cnc12` [Example 128, N-cyclopropyl-4-{6-(3-fluorophenyl)-8-[(2-methylpropyl)amino]imidazo[1,2-b]pyridazin-3-yl}benzamide], 2.7 nM.

For `Cc1cc(-c2cnc3c(NCC(C)(C)O)cc(NC4CCNC4)nn23)ccc1C(=O)NC1CC1` (racemic) [Example 272, (RS)—N-cyclopropyl-4-{8-[(2-hydroxy-2-methylpropyl)amino]-6-(pyrrolidin-3-ylamino)imidazo[1,2-b]pyridazin-3-yl}-2-methylbenzamide], the IC50 was found to be 21.1 nM. For `CC(C)CNc1cc(-c2ccc3ncccc3c2)nn2c(-c3ccc(C(=O)NC4CC4)cc3)cnc12` [Example 144, N-cyclopropyl-4-{8-[(2-methylpropyl)amino]-6-(quinolin-6-yl)imidazo [1,2-b]pyridazin-3-yl} benzamide] the value was 2.3 nM; for `NC(=O)c1ccc(-c2cnc3c(NCc4cccs4)cc(Cl)nn23)cc1` [Example 191, 4-{6-Chloro-8-[(thiophen-2-yl-methyl)amino]imidazol[1,2-b]pyridazin-3-yl}benzamide], not below 20000 nM; for `Cc1cc(F)cc(Nc2cc(NCCC(F)(F)F)c3ncc(-c4ccc(C(=O)NC5CC5)c(C)c4)n3n2)c1` [Example 371, N-cyclopropyl-4-{6-[(3-fluoro-5-methylphenyl)amino]-8-[(3,3,3-trifluoropropyl)amino]imidazo[1,2-b]pyridazin-3-yl}-2-methylbenzamide], 0.2 nM. For `CCNC(=O)c1ccc(-c2cnc3c(NCC(F)F)cc(Oc4ccc(OC)cc4F)nn23)cc1C` [Example 605, 4-{8-[(2,2-difluoroethyl)amino]-6-(2-fluoro-4-methoxyphen-oxy)imidazo[1,2-b]pyridazin-3-yl}-N-ethyl-2-methylbenzamide] the value was 1.2 nM. For `CC(C)CNc1cc(-c2cccc3ccccc23)nn2c(-c3ccc(C(=O)NC4CC4)cc3)cnc12` [Example 102, N-cyclopropyl-4-{8-[(2-methylpropyl)amino]-6-(naphthalen-1-yl)imidazo[1,2-b]pyridazin-3-yl}benzamide] the value was 24.6 nM; for `CNc1cc(Oc2cccc(F)c2F)nn2c(-c3ccc(C(=O)NC4CC4)c(C)c3)cnc12` [Example 528, N-cyclopropyl-4-[6-(2,3-difluorophenoxy)-8-(methylamino)imidazo[1,2-b]pyridazin-3-yl]-2-methylbenzamide], 0.7 nM; for `CCNC(=O)c1ccc(-c2cnc3c(NCCC(F)(F)F)cc(Oc4cccc(F)c4)nn23)cc1C` [Example 552, N-ethyl-4-{6-(3-fluorophenoxy)-8-[(3,3,3-trifluoropropyl)amino]imidazo[1,2-b]pyridazin-3-yl}-2-methylbenzamide], 0.2 nM.

Consider `Cc1cc(-c2cnc3c(NCCO)cc(Sc4cccc(F)c4)nn23)ccc1C(=O)NC1CC1` [Example 276, N-cyclopropyl-4-{6-[(3-fluorophenyl)sulfanyl]-8-[(2-hydroxyethyl)amino]imidazo[1,2-b]pyridazin-3-yl}-2-methylbenzamide], for which the IC50 is 0.1 nM. Then `CNC(=O)c1ccc(-c2cnc3c(NCC4CCOCC4)cc(Oc4ccc(OC)c(F)c4)nn23)cc1C` [Example 573, 4-{6-(3-fluoro-4-methoxyphenoxy)-8-[(tetrahydro-2H-pyran-4-ylmethyl)amino]imidazo[1,2-b]pyridazin-3-yl}-N,2-dimethylbenzamide], with less than 1 nM. For `Cc1cc(-c2cnc3c(NCCN(C)C)cc(Oc4cccc(F)c4)nn23)ccc1C(=O)NC1CC1` [Example 487, N-cyclopropyl-4-[8-{[2-(dimethylamino)ethyl]amino}-6-(3-fluorophenoxy)imidazo [1,2-b]pyridazin-3-yl]-2-methylbenzamide] the value was 0.1 nM; for `CNC(=O)Nc1ccc(-c2cc(NCC(C)C)c3ncc(-c4ccc(C(=O)NC5CC5)cc4)n3n2)cc1` [Example 146, N-cyclopropyl-4-(6-{4-[(methylcarbamoyl)amino]phenyl}-8-[(2-methylpropyl)amino]imidazo[1,2-b]pyridazin-3-yl)benzamide], 3.8 nM; for `COC(=O)c1cc(F)ccc1-c1cc(NCC(C)(C)O)c2ncc(-c3ccc(C(=O)NC4CC4)c(C)c3)n2n1` [Example 279, 2-{3-[4-(cyclopropylcarbamoyl)-3-methylphenyl]-8-[(2-hydroxy-2-methylpropyl)amino]imidazo[1,2-b]pyridazin-6-yl}-5-fluoro-benzoic acid methyl ester], 148 nM. Then `COc1cccc(Oc2cc(NCCC(F)(F)F)c3ncc(-c4ccc(C(=O)NC5CC5)c(C)c4)n3n2)c1` [Example 225, N-cyclopropyl-4-{6-(3-methoxyphenoxy)-8-[(3,3,3-trifluoropropyl)amino]imidazo[1,2-b]pyridazin-3-yl}-2-methylbenzamide], with 0.2 nM.

As to `Cc1cc(-c2cnc3c(NCC4CCSCC4)cc(Oc4ccc(Cl)c(F)c4)nn23)ccc1C(=O)NC1CC1` [Example 291, 4-{6-(4-chloro-3-fluorophenoxy)-8-[(tetrahydro-2H-thiopyran-4-ylmethyl)amino]imidazo[1,2-b]pyridazin-3-yl}-N-cyclopropyl-2-methylbenzamide], the IC50 was 0.6 nM. Then `Cc1cc(-c2cnc3c(NCCC(F)(F)F)cc(Nc4cccc(O)c4C)nn23)ccc1C(=O)NC1CC1` [Example 454, N-cyclopropyl-4-{6-[(3-hydroxy-2-methylphenyl)amino]-8-[(3,3,3-trifluoropropyl)amino]imidazo[1,2-b]pyridazin-3-yl}-2-methylbenzamide], with 0.1 nM; and `Cc1cc(-c2cnc3c(NCCC(F)(F)F)cc(Sc4cccc(F)c4)nn23)ccc1C(=O)NC1CC1` [Example 209, N-cyclopropyl-4-{6-[(3-fluorophenyl)sulfanyl]-8-[(3,3,3-trifluoropropyl)amino]imidazo[1,2-b]pyridazin-3-yl}-2-methylbenzamide], with 0.6 nM. Consider `Cc1cc(-c2cnc3c(NCC(C)(C)O)cc(-c4cc[nH]n4)nn23)ccc1C(=O)NC1CC1` [Example 160, N-cyclopropyl-4-{8-[(2-hydroxy-2-methylpropyl)amino]-6-(1H-pyrazol-3-yl)imidazo[1,2-b]pyridazin-3-yl}-2-methylbenzamide], for which the IC50 came out at 13.6 nM. Then `Cc1cc(-c2cnc3c(NCCCN)cc(Oc4cccc(F)c4)nn23)ccc1C(=O)NC1CC1` [Example 546, 4-{8-[(3-aminopropyl)amino]-6-(3-fluorophenoxy)imidazo[1,2-b]pyridazin-3-yl}-N-cyclopropyl-2-methylbenzamide], with 0.1 nM; and `CNC(=O)c1ccc(-c2cnc3c(NCCOC)cc(Oc4ccccc4C)nn23)cc1C` [Example 583, 4-{8-[(2-methoxyethyl)amino]-6-(2-methylphenoxy)imidazo[1,2-b]pyridazin-3-yl}-N,2-dimethylbenzamide], with 6.9 nM; and `Cc1cc(-c2cnc3c(NCC(C)(C)O)cc(Nc4cccc(O)c4)nn23)ccc1C(=O)NC1CC1` [Example 446, N-cyclopropyl-4-{8-[(2-hydroxy-2-methylpropyl)amino]-6-[(3-hydroxyphenyl)amino]imidazo[1,2-b]pyridazin-3-yl}-2-methylbenzamide], with 0.4 nM.

Source of the values: patent US9255100B2 (BAYER INTELLECTUAL PROPERTY GMBH, priority 2010, dated 2016).
